Laboratory results from patent US8357717B2, “Spiro group-containing amide compounds having bradykinin 1 receptor (B1R) activity” (Gruenenthal GmbH, priority 2009, dated 2013).

How the values were obtained:
[1] = target: T1, human B1R receptor (hB1R) (Homo sapiens, UniProt P46663); test: FLIPR Ca2+ functional study on bradykinin receptor 1, hB1R cells (CHO K1); assay type: cell-based; conditions: CHO-K1, 10 μM test substance; CHO K1 cells with human B1R; agonist Lys-Des-Arg9-bradykinin at EC80; read-out: B1R antagonism, human [10 μM] % inhibition
T1 construct: expressed in transfected cells; host or cells: CHO K1 cells, stably transfected
T1 sequence (P46663 1-353): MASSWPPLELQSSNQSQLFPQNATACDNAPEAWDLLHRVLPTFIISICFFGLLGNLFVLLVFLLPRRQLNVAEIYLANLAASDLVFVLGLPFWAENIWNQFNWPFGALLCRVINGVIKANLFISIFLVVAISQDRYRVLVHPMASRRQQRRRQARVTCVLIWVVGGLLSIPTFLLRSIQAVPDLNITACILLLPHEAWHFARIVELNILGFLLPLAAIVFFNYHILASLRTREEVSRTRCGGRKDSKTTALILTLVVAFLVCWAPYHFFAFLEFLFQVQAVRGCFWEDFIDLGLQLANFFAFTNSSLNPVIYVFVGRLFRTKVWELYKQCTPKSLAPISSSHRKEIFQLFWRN
How it was run: (§1)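 Stably transfected CHO K1 cells loaded with Fluo-4; FLIPR Ca2+ fluorescence (ex 488/em 540 nm, peak counts). Compounds (10 μM, or concentration series for IC50) preincubated 10–20 min, then EC80 agonist added (human: Lys-Des-Arg9-bradykinin; rat: Des-Arg9-bradykinin); % inhibition versus maximum achievable, n=2–3, N≥2.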

[2] = target: T2, B1R receptor of the rat (rB1R) (Rattus norvegicus, UniProt P97583); test: FLIPR Ca2+ functional study on bradykinin receptor 1, rB1R cells (CHO K1); assay type: cell-based; conditions: 10 μM test substance; CHO K1 cells with rat B1R; agonist Des-Arg9-bradykinin at EC80; read-out: B1R antagonism, rat [10 μM] % inhibition
T2 construct: expressed in transfected cells; host or cells: CHO K1 cells, stably transfected
T2 sequence (P97583 1-337): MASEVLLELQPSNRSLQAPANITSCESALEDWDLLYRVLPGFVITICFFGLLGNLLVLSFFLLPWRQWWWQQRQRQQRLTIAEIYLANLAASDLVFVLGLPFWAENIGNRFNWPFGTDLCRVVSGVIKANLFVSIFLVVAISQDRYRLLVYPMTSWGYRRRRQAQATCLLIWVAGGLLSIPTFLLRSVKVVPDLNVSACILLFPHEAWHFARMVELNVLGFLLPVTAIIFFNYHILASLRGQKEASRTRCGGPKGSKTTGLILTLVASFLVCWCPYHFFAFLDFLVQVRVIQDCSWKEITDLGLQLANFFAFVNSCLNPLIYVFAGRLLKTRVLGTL
How it was run: as §1

| inhibition at 10 µM [1] [%] | inhibition at 10 µM [2] [%] | SMILES |
| --- | --- | --- |
| 100 | 104 | COc1cc(C)c(S(=O)(=O)N2CCn3cnc(C(=O)N4CCC5(CC4)CCN(c4ccncc4)CC5)c3C2)c(C)c1 [Compound G-72, [7-[(4-Methoxy-2,6-dimethyl-phenyl)sulfonyl]-5,6,7,8-tetrahydro-imidazo[1,5-a]pyrazin-1-yl]-(9-pyridin-4-yl-3,9-diazaspiro[5.5]undecan-3-yl)-methanone] |
| 100 | 102 | COc1cc(C)c(S(=O)(=O)N2CCCc3ccc(CC(=O)N4CCC5(CCN(c6ccncc6)C5)C4)cc32)c(C)c1 (stereo not drawn) [Compound G-12, 2-(1-(4-Methoxy-2,6-dimethylphenylsulfonyl)-1,2,3,4-tetrahydroquinolin-7-yl)-1-(7-(pyridin-4-yl)-2,7-diazaspiro[4.4]nonan-2-yl)ethanone] |
| 100 | 102 | O=C(c1ccc2c(c1)CN(C(=O)c1ccc(Cl)s1)CC2)N1CCC2(CC1)CCN(c1ccncc1)CC2 [Compound G-42, (5-Chlorothiophen-2-yl)(7-(9-(pyridin-4-yl)-3,9-diazaspiro[5.5]undecane-3-carbonyl)-3,4-dihydroisoquinolin-2(1H)-yl)methanone] |
| 91 | 102 | COc1cc(C)c(S(=O)(=O)N2CCCc3ccc(CC(=O)N4CCC5(CCC(N6CCC6)CC5)CC4)cc32)c(C)c1 [Compound G-32, 1-(9-(Azetidin-1-yl)-3-azaspiro[5.5]undecan-3-yl)-2-(1-(4-methoxy-2,6-dimethylphenylsulfonyl)-1,2,3,4-tetrahydroquinolin-7-yl)ethanone] |
| 92 | 94 | O=C(Nc1ccc(Cl)c(Cl)c1)N1CCc2ccc(C(=O)N3CCC4(CC3)CCN(c3ccncc3)CC4)cc2C1 [Compound G-55, N-(3,4-dichlorophenyl)-7-(9-(pyridin-4-yl)-3,9-diazaspiro[5.5]undecane-3-carbonyl)-3,4-dihydroisoquinoline-2(1H)-carboxamide] |
| 99 | 99 | COc1cc(C)c(S(=O)(=O)N2CCCc3ccc(CC(=O)N4CCC5(CCN(c6ccncc6)CC5)C4)cc32)c(C)c1 [Compound G-11, 2-(1-(4-Methoxy-2,6-dimethylphenylsulfonyl)-1,2,3,4-tetrahydroquinolin-7-yl)-1-(8-(pyridin-4-yl)-2,8-diazaspiro[4.5]decan-2-yl)ethanone] |
| 87 | 99 | Cc1cc(S(=O)(=O)N2CCc3ccc(C(=O)N4CCC5(CC4)CCN(c4ccncc4)CC5)cc32)c(C)cc1Cl [G_CC-013, (1-(4-Chloro-2,5-dimethylphenylsulfonyl)indolin-6-yl)(9-(pyridin-4-yl)-3,9-diazaspiro[5.5]undecan-3-yl)methanone] |
| 100 | 94 | O=C(c1ccccc1Cl)N1CCc2onc(C(=O)N3CCC4(CC3)CCN(c3ccncc3)CC4)c2C1 [Compound G-13, (5-(2-Chlorobenzoyl)-4,5,6,7-tetrahydroisoxazolo[4,5-c]pyridin-3-yl)(9-(pyridin-4-yl)-3,9-diazaspiro[5.5]undecan-3-yl)methanone] |
| 77 | 91 | COc1ccc2c(Cl)c(C(=O)N3CCc4ccc(C(=O)N5CCC6(CC5)CCN(c5ccncc5)CC6)cc4C3)sc2c1 [Compound G-61, (3-Chloro-6-methoxybenzo[b]thiophen-2-yl)(7-(9-(pyridin-4-yl)-3,9-diazaspiro[5.5]undecane-3-carbonyl)-3,4-dihydroisoquinolin-2(1H)-yl)methanone] |
| 100 | 98 | COc1cc(C)c(S(=O)(=O)N2CCCc3ccc(CC(=O)N4CCC5(CC4)CCN(c4ccncc4)CC5)cc32)c(C)c1 [Compound G-25, 2-(1-(4-Methoxy-2,6-dimethylphenylsulfonyl)-1,2,3,4-tetrahydroquinolin-7-yl)-1-(9-(pyridin-4-yl)-3,9-diazaspiro[5.5]undecan-3-yl)ethanone] |
| 99 | 90 | O=C(/C=C/c1ccccc1Cl)N1CCc2ccc(C(=O)N3CCC4(CC3)CCN(c3ccncc3)CC4)cc2C1 [Compound G-41, 3-(2-Chlorophenyl)-1-(7-(9-(pyridin-4-yl)-3,9-diazaspiro[5.5]undecane-3-carbonyl)-3,4-dihydroisoquinolin-2(1H)-yl)prop-2-en-1-one] |
| 57 | 55 | O=C(Cc1ccc2c(c1)N(S(=O)(=O)c1cccc3ccccc13)CCC2)N1CCC2(CCC(N3CCC3)CC2)CC1 [Compound G-54, 1-(9-(Azetidin-1-yl)-3-azaspiro[5.5]undecan-3-yl)-2-(1-(naphthalin-1-ylsulfonyl)-1,2,3,4-tetrahydroquinolin-7-yl)ethanone] |
| 79 | 101 | O=C(Cc1ccc2c(c1)N(S(=O)(=O)c1ccc(OC(F)(F)F)cc1Cl)CCC2)N1CCC2(CC1)CCN(c1ccncc1)CC2 [Compound G-35, 2-(1-(2-Chloro-4-(trifluoromethoxy)phenylsulfonyl)-1,2,3,4-tetrahydroquinolin-7-yl)-1-(9-(pyridin-4-yl)-3,9-diazaspiro[5.5]undecan-3-yl)ethanone] |
| 100 | 106 | Cc1cccc(Cl)c1S(=O)(=O)N1CCCc2ccc(CC(=O)N3CCC4(CCN(c5ccncc5)CC4)C3)cc21 [Compound G-51, 2-(1-(2-Chloro-6-methylphenylsulfonyl)-1,2,3,4-tetrahydroquinolin-7-yl)-1-(8-(pyridin-4-yl)-2,8-diazaspiro[4.5]decan-2-yl)ethanone] |
| 86 | 95 | O=C(c1ccc2c(c1)CN(C(=O)c1cc3ccccc3s1)CC2)N1CCC2(CC1)CCN(c1ccncc1)CC2 [Compound G-59, Benzo[b]thiophen-2-yl(7-(9-(pyridin-4-yl)-3,9-diazaspiro[5.5]undecane-3-carbonyl)-3,4-dihydroisoquinolin-2(1H)-yl)methanone] |
